According to patent US20160214958A1, “COMPOUNDS AND USE FOR TREATING CANCER” (GLIONOVA AB, priority 2013, published 2016):

Assays:
human fibroblasts = test: Viability (ATP) of fibroblasts in presence of S10; format: cell-based; conditions: Fibroblast
Description: The ability of Examples S1-S23 to selectively induce cytotoxicity in glioma/glioblastoma cancer cells or glioma/glioblastoma cancer stem cells was determined by quantification of ATP production in glioma stem cell line U3013 in the presence of using CellTiterGlo reagent (Promega). Cells were exposed to compound in serial dilution in the range 1 nM to 50 µM for 24 hours and viability assessed with respect to negative control (dmso, no cell death) and positive control (staurosporine, full cell death). […] The EC50 of S10 remained largely similar at 2, 3 and 4 days of incubation. […] The individual isomers (S21-S23) of racemic S10 were evaluated in order to determine the enantiospecific pharmacology of the individual isomers.
For measuring cell viability, cytotoxicity and apoptosis in GSC/fibroblast/mGlia cells were grown in 384-well microtiter plates using procedure described above. […] Cell viability, cytotoxcity and apoptosis were measured using CellTiter-Glo® Luminescent Cell Viability Assay (Promega), CytoTox-Glo Cytotoxicity Assay and […], according to manufacturer's instructions. […] Luminescence was measured using a Victor3 FA (Perkin Elmer) microtiterplate reader and the level of released Caspase 3/7 quantified relative to control using GraphPad Prism (v6.02) software.

[1] = In vivo pharmacokinetics studies of S10 (iv, ip, per oral); design: species or system male BALB/c Mice; conditions: male, BALB/c, mouse, ip and per oral administration
Description: (§1) The bioavailability of S10 by oral and intraperitoneal injection in vivo was investigated. […] In a second delivery regimen, treatment was performed per orally (20 mg/kg) twice daily for five days. Treatment started at a terminal stage of GBM, i.e. six weeks after engraftment of U3013M GSCs and median survival from the time of treatment initiation and the Hazard ratio were scored.
In vivo pharmacokinetic studies of S10 were performed at SAI Life Sciences Ltd., Hyderabad, India to determine the plasma pharmacokinetics and brain distribution of S10 following a single intravenous, intraperitoneal and oral administration in male BALB/c Mice. Blood samples (approximately 60 μL) were collected from retro-orbital plexus of each mouse. The plasma and brain samples were obtained at 0.08, 0.25, 0.5, 1, 2, 4, 8, 24, 48, 72 and 144 hr (i.v.); 0.08, 0.25, 0.5, 1, 2, 4, 8 and 24 hour (i.p.) and 0.25, 0.5, 1, 2, 4, 6, 8, 24, 48, 72 and 144 hr (p.o.) post dosing. Plasma was harvested by centrifugation of blood and stored at −70° C. until analysis. Immediately after collection of blood, brain samples were collected from each mouse. Tissue samples (brain) were homogenized using ice-cold phosphate buffer saline (pH 7.4) and homogenates were stored below −70° C. until analysis. […] Plasma and brain samples were quantified using LC-MS/MS method LLOQ=1.03 ng/mL for plasma and LLOQ=10.25 ng/mL for brain. […]

U3013MG GSC xenograft = test: Mouse Kaplan-Meier experiment, oral S10 at terminal stage of GBM; format: in vivo, NOD-SCID mice; conditions: 20 mg/kg per orally for five days
Description: as §1
For Kaplan-Meier experiments, 100,000 GSC from U3013MG we injected into NOD-SCID mice as described above. Mice were then monitored for 6 weeks and then oral administration regiment was started. Mice were either given 200 μl of water or S10 in water corresponding to 20 mg/kg, via oral gavage. A total of nine animals were taken for each treatment (control, S10). The oral administration was followed once a day for five days following which the administration was stopped and the animals monitored till they reach the humane end point, after which they were sacrificed.

With `OC(c1cc(-c2ccc(Cl)cc2)nc2ccccc12)C1CCCCN1` (racemic) [Compound S10, (2-(4-chlorophenyl)quinolin-4-yl)(piperidin-2-yl)methanol] the EC50 (human fibroblasts; after 24 hrs) was 18.7 µM, the EC50 (human fibroblasts; at 96 hours) was 23 µM and the bioavailability ([1]; plasma, following iv, read-out: bioavailability F) was 69%. The half-life ([1]; plasma and brain exposure following iv, read-out: half-life t1/2 (converted)) was 20 h, the “Hazard ratio (rate of death untreated vs S10 treated group)” value (U3013MG GSC xenograft; comparison of the two survival curves) was 2.293 and the “median survival from the time of treatment initiation” value (U3013MG GSC xenograft; start six weeks after engraftment, n=9, DMSO treated animals 7 days) was 12 days.
